The source of these data is patent publication US20160074380A1, “Treatment Of Neurodegenerative Diseases With Combination Of Laquinimod And Fingolimod” (TEVA PHARMACEUTICAL INDUSTRIES LTD., priority 2014, published 2016).

The structures appear in SMILES notation. Read-outs that look alike come from different tables or passages of the source.

One data set deals with NF-κB pathway. In words: p65 translocation into the astrocyte nucleus in vivo.
A short description of data set [1]: Penetration of intact and disrupted Blood Brain Barrier. Format: in vivo, mice. The following applies: for Kp: mouse, CNS tissue relative to blood, read-out: CNS tissue level, % of the blood concentration. The source says:
In another study, laquinimod, as a small molecule, penetrated both intact and disrupted Blood Brain Barrier (BBB). In view of FIG. 17, CNS tissue level of laquinimod was 7-8% of the blood concentration in healthy mice and 13% in EAE mice when the BBB was disrupted. Further, 90% of the drug in cerebrospinal fluid (CSF) was active, or free, due to low protein binding and expected also in brain interstitial fluids. Thus, laquinimod targeted the entire brain and not only the lesions.

A further data set has as its system mouse primary microglia. In words: Pro-inflammatory cytokine production in mouse primary microglia. Format: cell-based.
For data set [2] the following is noted: DA EAE rats, doses 0.03-0.3 mg/kg; Foster, 2007; cited from earlier work.

`CCN(C(=O)c1c(O)c2c(Cl)cccc2n(C)c1=O)c1ccccc1` [Laquinimod]: the “astrocyte activation (p65 translocation into the astrocyte nucleus)” value in the data set with NF-κB pathway is listed as “significantly reduced astrocyte activation”. The “active, or free, drug in cerebrospinal fluid (CSF)” value in data set [1] (low protein binding) is reported as 90%. Moreover, the Kp in data set [1] (EAE mice, BBB disrupted) is 0.13; in data set [1] (healthy mice), 0.07 to 0.08.
As to `CCCCCCCCc1ccc(CCC(N)(CO)CO)cc1` [Fingolimod], the “microglial production of pro-inflammatory cytokine” value with mouse primary microglia was “inhibited”. Further, the brain/blood ratio result in data set [2] was “about 20”.
